# Tests used:
# human M3 receptor = biological target: T1, human M3 receptor (Homo sapiens, UniProt P20309); assay: Human M3 receptor antagonist activity, [3H]NMS receptor binding
# T1 construct: expressed in transfected cells; host or cells: CHO cells (membrane preparation)
# Experimental: Measurement of the receptor binding ability was performed by using a transgenic human M3 receptor expression CHO cell membrane, 1-[N-methyl-^3H] scopolamine methyl bromide ([^3H]NMS, specific activity of 82 Cimmol). Protein concentration of the cell membrane was 2 μg per well, concentration of the [^3H]NMS was 1.0 nM.
# Range of the antagonist concentration (10^−4 to 10^−11 M) was tested by creating a comparison curve. Unspecific binding was measured in the presence of 1 μM of atropine.
# The reagent was adjusted to a total volume of 100 μL with a binding buffer (phosphate buffer/saline). The mixture was incubated at room temperature for 2 hours so as to reach equilibrium, and then the resultant mixture was transplanted to a GF/C filter plate that had been pretreated with a washing buffer containing 0.05% polyethyleneimine for 1 hour.
# The bound [^3H]NMS and the free[^3H]NMS were separated by rapid vacuum filtration, and washed three times with a rinse buffer (50 mM of Tris, 100 mM of saline, and pH of 7.4). The obtained filter was dried, and then onto the dried filter, a solid scintillator, MeltiLex A (manufactured by PerkinElmer, Inc.) was fused, and the measurement and quantification were performed by using a β-counter (MicroBeta microplate scintillation counter (Trilux)).
# The Ki value was calculated by the following equation.
# [1] = test system: porcine pancreatic elastase-induced inflammation; assay: Effect on porcine pancreatic elastase-induced inflammation (total cells in BALF); format: in vivo; details: single transairway dose 1 hour before porcine pancreatic elastase 100 μg/mouse; BALF 24 hours after elastase; ICR mice
# Experimental: To 4 to 6-week old ICR mice, a test compound was administered once through the transairway. Porcine pancreatic elastase at 100 μg/mouse was administered 1 hour after the administration of the test compound. Bronchoalveolar lavage fluid (BALF) was collected from the lungs 24 hours after the administration of porcine pancreatic elastase, and the total number of cells was measured.
# [2] = test system: methacholine-induced airway constriction; assay: Effect on methacholine-induced airway constriction (airway resistance); format: in vivo; details: 47.9 μg/kg transairway, when exceeding 96 hours after the administration, ICR mice (FIG. 2)
# Experimental: The increase of airway resistance by methacholine induction was measured. To 4 to 6-week old ICR mice, methacholine at 1 mg/mL was administered 5 times by spraying the methacholine for 20 seconds. After completion of the methacholine administration, the airway resistance was measured by a snap shot technique. All of the data were analyzed by using FlexiVent software.
# The test compound at 47.9 μg/kg was administered to the mice through the transairway. The mice were exposed 5 times to nebulized methacholine 1 hour, 96 hours, and 120 hours after the administration, and the airway resistance at each time was measured.
# T1 sequence (P20309 whole entry): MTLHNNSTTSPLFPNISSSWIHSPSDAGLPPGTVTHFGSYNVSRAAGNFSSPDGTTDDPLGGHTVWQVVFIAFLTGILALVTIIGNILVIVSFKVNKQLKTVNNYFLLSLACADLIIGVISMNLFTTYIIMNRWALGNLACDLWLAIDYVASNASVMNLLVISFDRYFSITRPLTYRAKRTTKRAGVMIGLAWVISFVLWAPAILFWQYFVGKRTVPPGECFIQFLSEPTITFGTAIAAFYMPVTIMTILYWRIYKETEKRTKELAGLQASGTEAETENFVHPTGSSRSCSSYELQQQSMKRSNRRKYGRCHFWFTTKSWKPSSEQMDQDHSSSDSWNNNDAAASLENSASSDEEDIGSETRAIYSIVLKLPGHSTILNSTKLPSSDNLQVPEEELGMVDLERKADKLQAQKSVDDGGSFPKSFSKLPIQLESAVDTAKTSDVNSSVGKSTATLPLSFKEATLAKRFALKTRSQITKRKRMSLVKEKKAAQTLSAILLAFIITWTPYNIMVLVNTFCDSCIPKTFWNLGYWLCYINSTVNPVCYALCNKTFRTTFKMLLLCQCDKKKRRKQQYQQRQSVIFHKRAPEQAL
smiles,measurement,setting,value
O=C(OC1C[N+]2(CCOc3ccccc3F)CCC1CC2)C(O)(c1ccccc1)c1ccccc1 (centres unmarked) [Compound 1-4],Ki,human M3 receptor,0.114 nM
O=C(OC1C[N+]2(CCOc3ccccc3Cl)CCC1CC2)C(O)(c1ccccc1)c1ccccc1 (centres unmarked) [Compound 1-5],Ki,human M3 receptor,2.39 nM
O=C(OC1C[N+]2(CCOc3ccccc3Br)CCC1CC2)C(O)(c1ccccc1)c1ccccc1 (centres unmarked) [Compound 1-6],Ki,human M3 receptor,0.458 nM
O=C(O[C@H]1C[N+]2(CCCc3ccccc3)CCC1CC2)C(O)(c1ccccc1)c1ccccc1 [Compound 1-18],total number of cells in BALF,[1],reduced in a dose-dependent manner
O=C(O[C@@H]1C[N+]2(CCCc3ccccc3)CCC1CC2)C(O)(c1ccccc1)c1ccccc1 [Compound 1-19],total number of cells in BALF,[1],reduced in a dose-dependent manner
O=C(OC1C[N+]2(CCCc3ccccc3)CCC1CC2)C(O)(c1ccccc1)c1ccccc1 (centres unmarked) [Compound 1-20],total number of cells in BALF,[1],reduced in a dose-dependent manner
O=C(OC1C[N+]2(CCCOc3ccc(F)cc3)CCC1CC2)C(O)(c1ccccc1)c1ccccc1 (centres unmarked) [Compound 1-29],Ki,human M3 receptor,0.19 nM
O=C(OC1C[N+]2(CCCOc3ccc(Cl)cc3)CCC1CC2)C(O)(c1ccccc1)c1ccccc1 (centres unmarked) [Compound 1-30],Ki,human M3 receptor,0.084 nM
O=C(OC1C[N+]2(CCCOc3ccc(Br)cc3)CCC1CC2)C(O)(c1ccccc1)c1ccccc1 (centres unmarked) [Compound 1-31],Ki,human M3 receptor,0.32 nM
O=C(OC1C[N+]2(CCCOc3ccc(I)cc3)CCC1CC2)C(O)(c1ccccc1)c1ccccc1 (centres unmarked) [Compound 1-32],Ki,human M3 receptor,0.22 nM
Cc1ccc(OCCC[N+]23CCC(CC2)C(OC(=O)C(O)(c2ccccc2)c2ccccc2)C3)cc1 (centres unmarked) [Compound 1-33],Ki,human M3 receptor,0.058 nM
O=C(OC1C[N+]2(CCCOc3ccc(C(F)(F)F)cc3)CCC1CC2)C(O)(c1ccccc1)c1ccccc1 (centres unmarked) [Compound 1-34],Ki,human M3 receptor,2.7 nM
COc1ccc(OCCC[N+]23CCC(CC2)C(OC(=O)C(O)(c2ccccc2)c2ccccc2)C3)cc1 (centres unmarked) [Compound 1-35],Ki,human M3 receptor,5.89 nM
O=C(OC1C[N+]2(CCCOc3ccc(OC(F)(F)F)cc3)CCC1CC2)C(O)(c1ccccc1)c1ccccc1 (centres unmarked) [Compound 1-36],Ki,human M3 receptor,0.39 nM
O=C(OC1C[N+]2(CCOCc3ccccc3)CCC1CC2)C(O)(c1ccccc1)c1ccccc1 (centres unmarked) [Compound 1-41],Ki,human M3 receptor,0.12 nM
"O=C(O[C@H]1C[N+]2(CCCOc3ccccc3)CCC1CC2)C(O)(c1cccs1)c1cccs1 [aclidinium, reference compound]",airway resistance after methacholine,[2],did not reduce the airway resistance
same,total number of cells in BALF,[1],did not show any beneficial anti-inflammatory effects
